± gives the expanded uncertainty stated by the source.
Conditions: Crystal; DSC

- Triple point temperature: 295.75 ± 2 K
SMILES: CC(C)(N)CO [2-amino-2-methylpropan-1-ol]

From the NIST ThermoML archive (doi:10.1021/acs.jced.8b01220)
